Test results as given in patent publication US20230141603A1, “BENZODIAZEPINE DERIVATIVES AS GABA A GAMMA1 PAM” (Hoffmann-La Roche Inc., priority 2021, published 2023).

Key:
[1] = target: T1, h-GABAA α1β2γ1 (Homo sapiens, UniProt P14867+Q8N1C3); assay: Radioligand binding assay, [3H]RO7239181 competition, HEK293F membranes
T1 construct: expressed in transfected cells; host or cells: HEK293F cells (ThermoFisher R79007), membranes
T1 sequence (P14867 28-456): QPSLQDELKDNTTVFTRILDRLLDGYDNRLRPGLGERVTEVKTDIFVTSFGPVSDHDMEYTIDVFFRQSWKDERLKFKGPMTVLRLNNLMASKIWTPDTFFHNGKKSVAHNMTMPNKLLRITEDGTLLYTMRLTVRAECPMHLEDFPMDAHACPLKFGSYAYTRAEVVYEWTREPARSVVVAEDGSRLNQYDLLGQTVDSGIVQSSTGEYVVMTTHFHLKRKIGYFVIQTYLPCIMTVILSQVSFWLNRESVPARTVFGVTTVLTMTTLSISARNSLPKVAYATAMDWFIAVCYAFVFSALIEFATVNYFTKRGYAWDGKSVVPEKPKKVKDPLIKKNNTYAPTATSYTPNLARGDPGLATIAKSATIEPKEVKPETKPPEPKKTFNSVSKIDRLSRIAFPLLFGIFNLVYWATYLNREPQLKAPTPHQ
T1 sequence (P47870 25-512 partner limits assumed): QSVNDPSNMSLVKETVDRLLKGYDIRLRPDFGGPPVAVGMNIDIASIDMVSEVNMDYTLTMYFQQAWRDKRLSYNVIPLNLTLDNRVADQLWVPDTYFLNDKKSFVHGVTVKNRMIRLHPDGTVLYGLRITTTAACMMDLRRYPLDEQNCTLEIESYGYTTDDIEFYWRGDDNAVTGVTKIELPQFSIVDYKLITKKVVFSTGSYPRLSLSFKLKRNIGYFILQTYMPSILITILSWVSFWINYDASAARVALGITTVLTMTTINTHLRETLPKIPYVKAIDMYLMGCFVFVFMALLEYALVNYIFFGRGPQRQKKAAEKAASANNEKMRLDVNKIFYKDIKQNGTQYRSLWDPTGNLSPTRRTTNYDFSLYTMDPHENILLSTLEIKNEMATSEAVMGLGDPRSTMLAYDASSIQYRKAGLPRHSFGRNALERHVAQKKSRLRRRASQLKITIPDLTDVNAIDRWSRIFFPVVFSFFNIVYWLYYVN
T1 sequence (Q8N1C3 36-465): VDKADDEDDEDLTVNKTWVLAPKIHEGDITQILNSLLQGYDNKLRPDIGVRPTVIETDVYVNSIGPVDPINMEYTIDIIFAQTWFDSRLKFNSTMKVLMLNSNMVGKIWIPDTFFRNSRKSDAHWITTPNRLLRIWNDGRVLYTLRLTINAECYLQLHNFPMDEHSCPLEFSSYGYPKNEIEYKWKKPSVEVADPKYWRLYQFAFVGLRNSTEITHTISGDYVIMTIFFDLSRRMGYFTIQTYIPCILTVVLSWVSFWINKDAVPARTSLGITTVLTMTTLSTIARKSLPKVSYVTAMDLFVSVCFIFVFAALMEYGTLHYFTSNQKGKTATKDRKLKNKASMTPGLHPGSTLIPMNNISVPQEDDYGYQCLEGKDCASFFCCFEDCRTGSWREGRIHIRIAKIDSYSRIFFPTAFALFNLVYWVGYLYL
Procedure: (§1) The affinity of compounds at GABAA γ1 subunit-containing receptors was measured by competition for [^3H]RO7239181 (67.3 Ci/mmol; Roche) binding to membranes from HEK293F cells (ThermoFisher R79007) expressing human (transiently transfected) receptors of composition […], α2β2γ1, α1β2γ1.
(§2) Harvested pellets from HEK293F cells expressing the different GABAA receptor subtypes were resuspended in Mannitol Buffer pH 7.2-7.4 (Mannitol 0.29M, Triethylamine 10 mM, Acetic acid 10 mM, EDTA 1 mM plus protease inhibitors (20 tablets Complete, Roche Diagnostics Cat. No. 05 056 489 001 per liter)), washed two times and then resuspended at 1:10 to 1:15 dilution in the same buffer. Cell disruption was performed by stirring the suspension in a Parr vessel #4637 at 435 psi for 15 minutes, and then the suspensions were centrifuged at 1000×g for 15 minutes at 4° C. (Beckman Avanti J-HC; rotor JS-4.2). The supernatant (S1) was transferred in a 21 Schott flask and the pellet (P1) was resuspended with Mannitol Buffer up to 175 ml. The resuspended pellet was transferred into a 250 ml Corning centrifugal beaker and centrifuged at 1500×g for 10 minutes at 4° C. (Beckman Avanti J-HC; rotor JS-4.2). The supernatant (S1) was then transferred in the 21 Schott flask and the pellet was discarded. The supernatants (S1) were centrifuged in 500 ml Beckman polypropylene centrifugal beaker at 15′000×g for 30 minutes at 4° C. (Beckman Avanti J-20 XP; rotor JLA-10.500). The pellet (P2) was resuspended with Mannitol Buffer 1:1 and frozen at −80° C. The supernatant (S2) was centrifuged in 100 ml Beckman polypropylene centrifugal tubes at 48000×g for 50 minutes at 4° C. (Beckman Avanti J-20 XP; rotor JA-18). The supernatant (S3) was discarded and the pellet (P3) was resuspended with 1:1 Mannitol Buffer. The P2 and P3 protein concentration was determined with the BIORAD Standard assay method with bovine serum albumin as standard and measured on the NANO-Drop 1000. The membrane suspension was aliquots (500 μl per tube) and stored at −80° C. until required. Membrane homogenates were resuspended and polytronised (Polytron PT1200E Kinematica AG) in Potassium Phosphate 10 mM, KCl 100 mM binding buffer at pH 7.4 to a final assay concentration determined with a previous experiment.
(§3) Assays were incubated to equilibrium for 1 hour at 4° C. and then, membranes were filtered onto unifilter (96-well white microplate with bonded GF/C filters preincubated 20-50 minutes in 0.3% Polyethylenimine) with a Filtermate 196 harvester (Packard BioScience) and washed 4 times with cold Potassium Phosphate 10 mM pH 7.4, KCl 100 mM binding buffer. After drying, filter-retained radioactivity was detected by liquid scintillation counting. Ki values were calculated using Excel-Fit (Microsoft) and are the means of two determinations.

[2] = target: T2, h-GABAA α1β3γ2 (Homo sapiens, UniProt P14867+P18507); assay: Radioligand binding assay, [3H]Flumazenil competition, HEK293F membranes; conditions: for LogSel / γ2/γ1 Selectivity Ratio: Table 3; for LogSel: Log[Ki α1β3γ2 (nM)/Ki α2β2γ1 (nM)]; for γ2/γ1 Selectivity Ratio: Ki α1β3γ2 (nM)/Ki α2β2γ1 (nM)
T2 construct: expressed in transfected cells; host or cells: HEK293F cells, membranes
Procedure: The affinity of compounds at GABAA γ2 subunit-containing receptors was measured by competition for [^3H]Flumazenil (81.1 Ci/mmol; Roche) binding to HEK293F cells expressing human (transiently transfected) receptors of composition α1β3γ2.
Harvested pellets from HEK293F cells expressing the different GABAA γ2 receptor subtypes were resuspended in Mannitol Buffer pH 7.2-7.4 and processed as described above for the cells expressing the GABAA γ1 subunit-containing receptors.
Assays were incubated to equilibrium for 1 hour at 4° C. and harvested onto GF/C uni-filters (Packard) by filtration using a Packard harvester and washing with ice-cold wash buffer (50 mM Tris; pH 7.5). After drying, filter-retained radioactivity was detected by liquid scintillation counting. Ki values were calculated using Excel-Fit (Microsoft) and are the means of two determinations.

[3] = target: T3, h-GABAA α2β2γ1 (Homo sapiens, UniProt P47869+Q8N1C3); assay: Radioligand binding assay, [3H]RO7239181 competition, HEK293F membranes; design: signal peptide of human GABAA α5 subunit (Met1 to Ser31), replacing the α2 signal peptide (N); expressed in transfected cells; host or cells: HEK293F cells (ThermoFisher R79007), membranes
T3 sequence (P47869 29-451): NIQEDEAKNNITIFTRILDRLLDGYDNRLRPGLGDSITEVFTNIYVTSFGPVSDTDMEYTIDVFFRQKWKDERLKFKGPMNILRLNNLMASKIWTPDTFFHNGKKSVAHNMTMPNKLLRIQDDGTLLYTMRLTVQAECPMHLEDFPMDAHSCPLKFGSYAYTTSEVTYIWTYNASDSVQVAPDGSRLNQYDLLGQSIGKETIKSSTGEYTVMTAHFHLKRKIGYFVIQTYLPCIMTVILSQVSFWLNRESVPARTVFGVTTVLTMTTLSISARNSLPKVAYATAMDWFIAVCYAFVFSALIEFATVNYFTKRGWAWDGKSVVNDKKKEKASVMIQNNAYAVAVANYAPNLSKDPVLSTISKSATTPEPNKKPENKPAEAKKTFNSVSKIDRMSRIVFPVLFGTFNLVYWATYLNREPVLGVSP
T3 sequence (P47870 25-512 partner limits assumed): T1 sequence (P47870 25-512 partner limits assumed)
T3 sequence (Q8N1C3 36-465): T1 sequence (Q8N1C3 36-465)
Procedure: as §1, §2, §3

[4] = target: T3, h-GABAA α2β2γ1; assay: Two-electrode voltage clamp electrophysiology in Xenopus oocytes, modulation of GABA EC20 current; assay type: cell-based; design: host or cells: Xenopus laevis oocytes, RNA micro-injection; conditions: α2β2γ1 GABAA receptor subtype expressing oocytes; reference PAMs
Procedure: Xenopus laevis oocytes at maturation stages V-VJ were used for the expression of cloned mRNA encoding GABAA receptor subunits. Oocytes ready for RNA micro-injection were bought from Ecocyte, Castrop-Rauxel, Germany and stored in modified Barth's medium (composition in mM: NaCl 88, KCl 1, NaHCO3 2.4, HEPES 10, MgSO4 0.82, CaNO3 0.33, CaCl2 0.33, pH=7.5) at 20° C. until the experiment.
Oocytes were plated in 96-well plates for microinjection using the Roboinject automated instrument (MultiChannelSystems, Reutlingen, Germany). Approximately 50 nL of an aqueous solution containing the RNA transcripts for the subunits of the desired GABAA receptor subtype was injected into each oocyte. […] Oocytes were kept in modified Barth's medium (composition in mM: NaCl 88, KCl 1, NaHCO3 […], HEPES 10, MgSO4 0.82, CaNO3 0.33, CaCl2 0.33, pH=7.5) at 20° C. until the experiment.
Electrophysiological experiments were performed using the Roboocyte instrument (MultiChannelSystems, Reutlingen, Germany) on days 3 to 5 after the micro-injection of mRNA. During the experiment the oocytes were constantly superfused by a solution containing (in mM) NaCl 90, KCl 1, HEPES 5, MgCl2 1, CaCl2 1 (pH 7.4). Oocytes were impaled by two glass microelectrodes (resistance: 0.5-0.8 MΩ) which were filled with a solution containing KCl 1M+K-acetate 1.5 M and voltage-clamped to −80 mV. The recordings were performed at room temperature using the Roboocyte two-electrode voltage clamp system (Multichannelsystem). After an initial equilibration period of 1.5 min GABA was added for 1.5 min at a concentration evoking approximately 20% of a maximal current response (EC20). After another rest interval of 2.5 min GABA was again added evoking a response of similar amplitude and shape. […] Current traces were recorded at a digitization rate of 10 Hz during and shortly before and after the GABA application.
Each compound and concentration was tested on at least 3 oocytes. Different oocytes were used for different compound concentrations.
For the analysis, the digitized current traces of the first and second GABA response were superimposed and, if necessary, rescaled to equal maximal amplitudes. The ratio between the two responses during the time interval of test compound application was calculated point by point. The extremum of the resulting “ratio trace” was taken as the efficacy (“Fold increase”) of the compound expressed as “% modulation of GABA EC20” (100*(Fold increase−1)).

`Cc1nnc2n1-c1ccc(Cl)cc1C(c1ccccc1)=NC2` [Alprazolam, reference compound] was tested, and the Ki [1] was 5920 nM, the Ki [2] was 19.6 nM and the LogSel [2] was −2.3. It also gave a Ki [3] of 3940 nM.

In the case of `Clc1ccc2c(c1)C(c1ccccc1)=NCc1nncn1-2` [Estazolam, reference compound], the Ki [2] is reported as 28.4 nM, the LogSel [2] is reported as −2.0 and the Ki [3] is reported as 3180 nM.

For `Cc1nnc2n1-c1ccc(Br)cc1C(c1c(F)cccc1F)=NC2` [RE-A, 8-bromo-6-(2,6-difluorophenyl)-1-methyl-4H-[1,2,4]triazolo[4,3-a][1,4]benzodiazepine, reference compound], the Ki [2] was 5.6 nM, the “γ2/γ1 Selectivity Ratio” value [2] was 0.18 and the LogSel [2] was −0.74. It also gave a Ki [3] of 32.1 nM.

In the case of `Cc1nnc2n1-c1ccc(C(F)(F)F)cc1C(c1c(F)cccc1F)=NC2` [RE-B, 6-(2,6-difluorophenyl)-1-methyl-8-(trifluoromethyl)-4H-[1,2,4]triazolo[4,3-a][1,4]benzodiazepine, reference compound], the Ki [2] is reported as 15.6 nM, the “γ2/γ1 Selectivity Ratio” value [2] is reported as 0.23 and the LogSel [2] is reported as −0.64. For the same molecule, the Ki [3] was 68.4 nM.

In the case of `Cc1nnc2n1-c1ccccc1C(c1c(F)cccc1F)=NC2` [RE-C, 6-(2,6-difluorophenyl)-1-methyl-4H-[1,2,4]triazolo[4,3-a][1,4]benzodiazepine, reference compound], the Ki [2] is reported as 5.8 nM, the “γ2/γ1 Selectivity Ratio” value [2] is reported as 0.0092 and the LogSel [2] is reported as −2.0. For the same molecule, the Ki [3] was 627 nM.

With `Cc1nnc2n1-c1cccc(Cl)c1C(c1c(F)cccc1F)=NC2` [RE-G, 7-chloro-6-(2,6-difluorophenyl)-1-methyl-4H-[1,2,4]triazolo[4,3-a][1,4]benzodiazepine, reference compound] the Ki [2] was 302 nM, the “γ2/γ1 Selectivity Ratio” value [2] was 9.8 and the LogSel [2] was 0.99. The Ki [3] was 30.8 nM.

`Cc1nnc2n1-c1ccc(Cl)cc1C(c1ccccc1Cl)=NC2` [Triazolam, reference compound] was tested, and the LogSel [2] was −1.5 and the “potentiation of the GABA-induced current” value [4] was roughly 60%.
